Data published in paper PMC10590383, “Repurposing conformational changes in ANL superfamily enzymes to rapidly generate biosensors for organic and amino acids” (Nature Communications, 2023).

How the values were obtained:
[1] = Substrate (ligand) specificity of […]s; assay type: biochemical; conditions: for fluorescence response of GECFINDER to each substrate, AVE of 3 repeats: Supplementary Fig. 3 c, substrate specificity; for AVE of Repeat 1-3, sensor signal with ligand (Supplementary Fig. 7 c): 1 mM ligand, Control AVE 12117.3
Procedure: Fig. 4 Engineering ligand specificity of GrsA-PheA for generating […]s. a The selectivity-conferring code of Phe and Leu A domains. b–f Dose–response curve of purified […]s with increasing concentrations of ligands in 100 mM Tris-HCl buffer (pH=7.5). All data shown are means ± S.D. (n = 3 biologically independent samples). g A series of […] reactions was tested to show the […]’s specificity with 20 proteinogenic amino acids. The values on the heatmap represent the ΔF/F0 value normalized to each […]’s maximal ΔF/F0 value ((ΔF/F0)/maximal ΔF/F0). The concentrations of 20 amino acids were 100 μM. The color indicates the average value of three independent biological replicates after 15 min. All data shown are means ± S.D. (n = 3 biologically independent samples). Source data are provided as a Source data file.
Ligand specificity is an important biosensors feature. Generally, the NRPS A domains have high specificity for their substrates because they are the first “gatekeeper” of NRPSs and ensure that the correct monomers are activated and thioesterified[32],[33]. Therefore, we speculated that this property would be inherited by our […]s because the ligand-binding pockets were unchanged during the […] creation process. Twenty proteinogenic amino acids were used to test the ligand specificity of […]s. […] We also investigated the dependence of […]s on Mg^2+ and ATP (Supplementary Fig. 4). […] This phenomenon corroborates with the distinct conformational changes observed in Hinge A of Nt4CL2 (Mg^2++ATP) (PDB ID: 5BSM) and Nt4CL2 (Coumaroyl-AMP) (PDB ID: 5BST) reported in the literature (Supplementary Fig. 4k), where the direction of motion in hinge A differs. […] During the determination of quantum yield, we observed that the absolute quantum yield of the […] variants ranged from 0.3 to 0.6 upon addition of the respective substrates, which show no significant difference with that reported in literature. The specific values are provided in Supplementary Table 2.
The study conducted dose–response curve, substrate specificity, and fluorescent spectrum analyses in 100-mM Tris buffer (pH = 7.5), while pH stability experiments were performed in 100-mM Tris buffer at three different pH values (6.5, 7.5, and 8.5) at room temperature. […] protein at a concentration of 0.75 μM, various small molecule concentrations, 1 mM ATP, and 2.5 mM MgCl2 were used in the experiments. Fluorescent signals were detected using a Microplate Reader (Synergy H4, Bio Tek) at an excitation/emission wavelength of 460 nm/510 nm or 480 nm/510 nm. The dose-response curve was determined immediately after the addition of the analyte. The total duration of the measurement was 15 min, with readings taken at one-minute intervals. The dose-response curve was plotted using the fluorescence values obtained after achieving stability in the fluorescence signal. The dose-response curves were fitted using the logistic model LOGISTIC5 available in Origin 2021, which could provide a more adequate fit to asymmetric dose-response data[62],[63]. Excitation spectra were scanned from 300 to 540 nm with a step size of 5 nm, and the emission wavelength was set to 560 nm. Emission spectra were scanned from 470 to 700 nm with a step size of 5 nm, and the excitation wavelength was set to 450 nm. The thermal stability of […] was analyzed using the UNcle multifunctional protein stability analysis system. Measurements were performed in 20 mM MOPS buffer with 2 mM DTT at a sample concentration of 1 mg/mL. Absolute fluorescence quantum yields were measured using an absolute photoluminescence quantum yield spectrometer (FS5, Edinburgh).

[2] = Dependence of […]s on Mg2+ and ATP (fluorescence intensity); assay type: biochemical; conditions: Mg+ +
From the text: Ligand specificity is an important biosensors feature. Generally, the NRPS A domains have high specificity for their substrates because they are the first “gatekeeper” of NRPSs and ensure that the correct monomers are activated and thioesterified[32],[33]. […] Twenty proteinogenic amino acids were used to test the ligand specificity of […]s. […] We also investigated the dependence of […]s on Mg^2+ and ATP (Supplementary Fig. 4).
Supplementary Fig. 4 Dependence of GEC FINDER s on Mg2+ and ATP . a-j, Fluore scence intensities of
GECF IN DERs in the absence of any substra te, in the pre sence of Mg2+ alone, ATP alone, both Mg2+ and ATP, Mg2+
and ATP with re spective substra tes. Mg2+ concentra tion was 2.5 mM, and ATP concentra tion was 1 mM. a, 100 μM
data are provided as a Source Data file.

SMILES: NC(=O)C[C@H](N)C(=O)O [Asn]
- fluorescence response of GECFINDER to each substrate, AVE of 3 repeats [1]: 0.01237

SMILES: NCCCC[C@H](N)C(=O)O [Lys]
- fluorescence response of GECFINDER to each substrate, AVE of 3 repeats [1]: -0.005837

SMILES: N=C(N)NCCC[C@H](N)C(=O)O [Arg]
- fluorescence response of GECFINDER to each substrate, AVE of 3 repeats [1]: 0.01953

SMILES: CC[C@H](C)[C@H](N)C(=O)O [isoleucine]
- fluorescence intensity, AVE of 3 repeats ([2]; Supplementary Fig. 4 e, ATP +, isoleucine +): 15546

SMILES: N[C@@H](CS)C(=O)O [Cys]
- fluorescence response of GECFINDER to each substrate, AVE of 3 repeats [1]: -0.0008412

SMILES: N[C@@H](CC(=O)O)c1ccccc1 [S-β-phenylalanine]
- fluorescence intensity, AVE of 3 repeats ([2]; Supplementary Fig. 4 h, ATP +, S-β-phenylalanine +): 22066

SMILES: [Mg+2] [Mg+]
- fluorescence intensity, AVE of 3 repeats ([2]; Supplementary Fig. 4 a, ATP -, 4-coumaric acid -): 2849
- fluorescence intensity, AVE of 3 repeats ([2]; Supplementary Fig. 4 b, ATP -, phenylalanine -): 6591
- fluorescence intensity, AVE of 3 repeats ([2]; Supplementary Fig. 4 c, ATP -, glutamine -): 17660
- fluorescence intensity, AVE of 3 repeats ([2]; Supplementary Fig. 4 e, ATP -, isoleucine -): 12580
- fluorescence intensity, AVE of 3 repeats ([2]; Supplementary Fig. 4 f, ATP -, histidine -): 26018
- fluorescence intensity, AVE of 3 repeats ([2]; Supplementary Fig. 4 g, ATP -, leucine -): 6350.33
- fluorescence intensity, AVE of 3 repeats ([2]; Supplementary Fig. 4 i, ATP -, tyrosine -): 5977
- fluorescence intensity, AVE of 3 repeats ([2]; Supplementary Fig. 4 j, ATP -, phenylalanine -): 7671.67
- fluorescence intensity, AVE of 3 repeats ([2]; Supplementary Fig. 4 h, ATP -, S-β-phenylalanine -): 5046.33
- fluorescence intensity, AVE of 3 repeats ([2]; Supplementary Fig. 4 d, ATP -, proline -): 43559.3

SMILES: NCC(=O)O [Gly]
- fluorescence response of GECFINDER to each substrate, AVE of 3 repeats [1]: 0.007359

SMILES: N[C@@H](Cc1c[nH]cn1)C(=O)O [histidine]
- fluorescence intensity, AVE of 3 repeats ([2]; Supplementary Fig. 4 f, ATP +, histidine +): 33756

SMILES: NC(=O)CC[C@H](N)C(=O)O [Gln]
- fluorescence response of GECFINDER to each substrate, AVE of 3 repeats [1]: 0.009843

SMILES: N[C@@H](CO)C(=O)O [Ser]
- fluorescence response of GECFINDER to each substrate, AVE of 3 repeats [1]: -0.004319

SMILES: N[C@@H](CC(=O)O)C(=O)O [Asp]
- fluorescence response of GECFINDER to each substrate, AVE of 3 repeats [1]: 0.02069

SMILES: N[C@@H](Cc1ccccc1)C(=O)O [phenylalanine]
- fluorescence intensity, AVE of 3 repeats ([2]; Supplementary Fig. 4 b, ATP +, phenylalanine +): 39284.7
- fluorescence intensity, AVE of 3 repeats ([2]; Supplementary Fig. 4 j, ATP +, phenylalanine +): 31788

SMILES: N[C@@H](Cc1c[nH]c2ccccc12)C(=O)O [Trp]
- AVE of Repeat 1-3, sensor signal with ligand (Supplementary Fig. 7 c) [1]: 11938.7
- fluorescence response of GECFINDER to each substrate, AVE of 3 repeats [1]: -0.01712

SMILES: N[C@@H](Cc1ccc(O)cc1)C(=O)O [tyrosine]
- fluorescence intensity, AVE of 3 repeats ([2]; Supplementary Fig. 4 i, ATP +, tyrosine +): 9237.33

SMILES: CSCC[C@H](N)C(=O)O [Met]
- AVE of Repeat 1-3, sensor signal with ligand (Supplementary Fig. 7 c) [1]: 12345.3
- fluorescence response of GECFINDER to each substrate, AVE of 3 repeats [1]: 0.1232

SMILES: CC(C)[C@H](N)C(=O)O [Val]
- fluorescence response of GECFINDER to each substrate, AVE of 3 repeats [1]: -0.02124

SMILES: C[C@H](N)C(=O)O [Ala]
- fluorescence response of GECFINDER to each substrate, AVE of 3 repeats [1]: 0.02842

SMILES: O=C(O)[C@@H]1CCCN1 [proline]
- fluorescence intensity, AVE of 3 repeats ([2]; Supplementary Fig. 4 d, ATP +, proline +): 54621.3

SMILES: C[C@@H](O)[C@H](N)C(=O)O [Thr]
- fluorescence response of GECFINDER to each substrate, AVE of 3 repeats [1]: -0.00888
